Experimental data from ChEMBL document CHEMBL1201862, “PubChem BioAssay data set” (2004).
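Method: 48-hour compound exposure of cells in 96-well plates, five concentrations, linear interpolation of endpoints. GI50 is the concentration that inhibits growth by half.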 Calls of active or inactive are those of the source. Cut-off read from the data, not from the text of the source: active = GI50 up to about 1.1 µM and inactive = higher.

How the values were obtained:
Experiment in all cases: NCI anticancer screen, dose series, 48 h
HCT-116 = test system: HCT-116
SNB-75 = test system: SNB-75
OVCAR-4 = test system: OVCAR-4
NCI-H226 = test system: NCI-H226
786-0 = test system: 786-0
NCI-H23 = test system: NCI-H23
A498 = test system: A498
UACC-62 = test system: UACC-62
TK-10 = test system: TK-10
HCT-15 = test system: HCT-15
HOP-92 = test system: HOP-92
SR = test system: SR
UACC-257 = test system: UACC-257
SF-539 = test system: SF-539
SK-MEL-2 = test system: SK-MEL-2
IGROV-1 = test system: IGROV-1
RXF 393 = test system: RXF 393
Malme-3M = test system: Malme-3M
T47D = test system: T47D
MDA-N = test system: MDA-N
SK-MEL-28 = test system: SK-MEL-28
SK-MEL-5 = test system: SK-MEL-5
MOLT-4 = test system: MOLT-4
U-251 = test system: U-251
EKVX = test system: EKVX
MDA-MB-231 = test system: MDA-MB-231
Hs-578T = test system: Hs-578T
K562 = test system: K562
SW-620 = test system: SW-620
OVCAR-5 = test system: OVCAR-5
NCI-H460 = test system: NCI-H460
PC-3 = test system: PC-3
OVCAR-3 = test system: OVCAR-3
SF-295 = test system: SF-295
SF-268 = test system: SF-268
HT-29 = test system: HT-29
A549 = test system: A549
MDA-MB-435 = test system: MDA-MB-435
LOX IMVI = test system: LOX IMVI
HOP-62 = test system: HOP-62
MCF7 = test system: MCF7
HL-60 = test system: HL-60
UO-31 = test system: UO-31
CAKI-1 = test system: CAKI-1
COLO 205 = test system: COLO 205
NCI-H522 = test system: NCI-H522
SN12C = test system: SN12C
SK-OV-3 = test system: SK-OV-3
ACHN = test system: ACHN
RPMI-8226 = test system: RPMI-8226
HCC 2998 = test system: HCC 2998
CCRF-CEM = test system: CCRF-CEM
KM12 = test system: KM12
DU-145 = test system: DU-145
M14 = test system: M14
SNB-19 = test system: SNB-19
OVCAR-8 = test system: OVCAR-8
NCI/ADR-RES = test system: NCI/ADR-RES

`N#Cc1nc(C(F)(F)F)oc1N` was tested, and the GI50 (HCT-116) was > 100 µM (inactive), the GI50 (SNB-75) was > 100 µM (inactive) and the GI50 (OVCAR-4) was > 100 µM (inactive). The GI50 (NCI-H226) was > 100 µM (inactive), the GI50 (786-0) was > 100 µM (inactive) and the GI50 (NCI-H23) was > 100 µM (inactive). For the same molecule, the GI50 (A498) was > 100 µM (inactive), the GI50 (UACC-62) was > 100 µM (inactive) and the GI50 (TK-10) was > 100 µM (inactive). For the same molecule, the GI50 (HCT-15) was over 100 µM, the GI50 (HOP-92) was > 100 µM (inactive) and the GI50 (SR) was > 100 µM (inactive). For the same molecule, the GI50 (UACC-257) was > 100 µM (inactive), the GI50 (SF-539) was > 100 µM (inactive) and the GI50 (SK-MEL-2) was > 100 µM (inactive). For the same molecule, the GI50 (IGROV-1) was > 100 µM (inactive), the GI50 (RXF 393) was > 100 µM (inactive) and the GI50 (Malme-3M) was > 100 µM (inactive). The GI50 (T47D) was > 100 µM (inactive), the GI50 (MDA-N) was > 100 µM (inactive) and the GI50 (SK-MEL-28) was > 100 µM (inactive). The GI50 (SK-MEL-5) was > 100 µM (inactive), the GI50 (MOLT-4) was > 100 µM (inactive) and the GI50 (U-251) was > 100 µM (inactive). For the same molecule, the GI50 (EKVX) was > 100 µM (inactive), the GI50 (MDA-MB-231) was > 100 µM (inactive) and the GI50 (Hs-578T) was > 100 µM (inactive). The GI50 (K562) was > 100 µM (inactive), the GI50 (SW-620) was > 100 µM (inactive) and the GI50 (OVCAR-5) was > 100 µM (inactive). The GI50 (NCI-H460) was > 100 µM (inactive), the GI50 (PC-3) was > 100 µM (inactive) and the GI50 (OVCAR-3) was > 100 µM (inactive). For the same molecule, the GI50 (SF-295) was > 100 µM (inactive), the GI50 (SF-268) was > 100 µM (inactive) and the GI50 (HT-29) was > 100 µM (inactive). The GI50 (A549) was > 100 µM (inactive), the GI50 (MDA-MB-435) was > 100 µM (inactive) and the GI50 (LOX IMVI) was > 100 µM (inactive). The GI50 (HOP-62) was > 100 µM (inactive), the GI50 (MCF7) was > 100 µM (inactive) and the GI50 (HL-60) was > 100 µM (inactive). For the same molecule, the GI50 (UO-31) was > 100 µM (inactive), the GI50 (CAKI-1) was > 100 µM (inactive) and the GI50 (COLO 205) was > 100 µM (inactive). The GI50 (NCI-H522) was 66.1 µM (inactive), the GI50 (SN12C) was > 100 µM (inactive) and the GI50 (SK-OV-3) was > 100 µM (inactive). The GI50 (ACHN) was > 100 µM (inactive), the GI50 (RPMI-8226) was > 100 µM (inactive) and the GI50 (HCC 2998) was > 100 µM (inactive). The GI50 (CCRF-CEM) was 95.3 µM (inactive), the GI50 (KM12) was > 100 µM (inactive) and the GI50 (DU-145) was > 100 µM (inactive). For the same molecule, the GI50 (M14) was > 100 µM (inactive), the GI50 (SNB-19) was > 100 µM (inactive) and the GI50 (OVCAR-8) was > 100 µM (inactive). The GI50 (NCI/ADR-RES) was > 100 µM (inactive).

In the case of `C[C@@H]1C[C@@H](O)[C@@]2(O)C13CC(=O)OC(C3)[C@@H](C)[C@@]2(C)CO` (stereo partly drawn), the GI50 (HCT-116) is reported as > 100 µM (inactive), the GI50 (OVCAR-4) is reported as > 100 µM (inactive) and the GI50 (NCI-H226) is reported as > 100 µM (inactive). The GI50 (786-0) was > 100 µM (inactive), the GI50 (NCI-H23) was > 100 µM (inactive) and the GI50 (A498) was > 100 µM (inactive). For the same molecule, the GI50 (UACC-62) was > 100 µM (inactive), the GI50 (TK-10) was > 100 µM (inactive) and the GI50 (HCT-15) was over 100 µM. The GI50 (HOP-92) was > 100 µM (inactive), the GI50 (SR) was > 100 µM (inactive) and the GI50 (UACC-257) was > 100 µM (inactive). For the same molecule, the GI50 (SF-539) was > 100 µM (inactive), the GI50 (SK-MEL-2) was > 100 µM (inactive) and the GI50 (IGROV-1) was > 100 µM (inactive). The GI50 (RXF 393) was > 100 µM (inactive), the GI50 (Malme-3M) was > 100 µM (inactive) and the GI50 (T47D) was > 100 µM (inactive). For the same molecule, the GI50 (MDA-N) was > 100 µM (inactive), the GI50 (SK-MEL-28) was > 100 µM (inactive) and the GI50 (SK-MEL-5) was > 100 µM (inactive). For the same molecule, the GI50 (MOLT-4) was > 100 µM (inactive), the GI50 (U-251) was > 100 µM (inactive) and the GI50 (EKVX) was > 100 µM (inactive). The GI50 (MDA-MB-231) was > 100 µM (inactive), the GI50 (Hs-578T) was > 100 µM (inactive) and the GI50 (K562) was > 100 µM (inactive). For the same molecule, the GI50 (SW-620) was > 100 µM (inactive), the GI50 (OVCAR-5) was > 100 µM (inactive) and the GI50 (NCI-H460) was > 100 µM (inactive). For the same molecule, the GI50 (PC-3) was > 100 µM (inactive), the GI50 (OVCAR-3) was > 100 µM (inactive) and the GI50 (SF-295) was > 100 µM (inactive). For the same molecule, the GI50 (SF-268) was > 100 µM (inactive), the GI50 (HT-29) was > 100 µM (inactive) and the GI50 (A549) was > 100 µM (inactive). The GI50 (MDA-MB-435) was > 100 µM (inactive), the GI50 (LOX IMVI) was > 100 µM (inactive) and the GI50 (HOP-62) was > 100 µM (inactive). For the same molecule, the GI50 (MCF7) was > 100 µM (inactive), the GI50 (HL-60) was > 100 µM (inactive) and the GI50 (UO-31) was > 100 µM (inactive). For the same molecule, the GI50 (COLO 205) was > 100 µM (inactive), the GI50 (NCI-H522) was > 100 µM (inactive) and the GI50 (SN12C) was > 100 µM (inactive). For the same molecule, the GI50 (SK-OV-3) was > 100 µM (inactive), the GI50 (ACHN) was > 100 µM (inactive) and the GI50 (RPMI-8226) was > 100 µM (inactive). For the same molecule, the GI50 (HCC 2998) was > 100 µM (inactive), the GI50 (KM12) was > 100 µM (inactive) and the GI50 (DU-145) was > 100 µM (inactive). The GI50 (M14) was > 100 µM (inactive), the GI50 (SNB-19) was > 100 µM (inactive) and the GI50 (OVCAR-8) was > 100 µM (inactive). For the same molecule, the GI50 (NCI/ADR-RES) was > 100 µM (inactive).
